The subject of one data set is adult fleas. Nature of the data set: Flea feeding system: viability and fecundity of fleas fed blood containing protease inhibitors. The data set is classed as in vivo. Conditions: for Fecundity Days 1-7 / Adult Survival Female / Adult Survival Male / Adult Survival Total: percent of corresponding control group. Here is the method: This Example evaluates the effect of a number of protease inhibitors on flea viability and fecundity in a flea feeding system as described by Wade et al. ibid.
Protease inhibitor compounds were tested in groups of 3 to 6 including appropriate control groups. Inhibitors were not tested in groups of common inhibition types. Rather, they were tested in groups based on the diluent needed to dissolve them. (AEBSF, aprotinin, bestatin, leupeptin, phosphoramidon, soybean trypsin inhibitor and soybean trypsin/chymotrypsin inhibitor were dissolved in water; E-64 and pepstatin were dissolved in ethanol). This reduced the number of control (diluent only) groups needed within a particular assay. Inhibitor concentrations were chosen such that the lower concentration used was within the range recommended by the supplier for that inhibitor. The higher concentration was typically 10 times above the lower concentration and was used to look for dose response.
The general protocol for all of the assays was as follows: Approximately 2000 newly emerged adult fleas were placed in feeding chambers to feed on normal blood for about 24 to 48 hr. The fleas were prefed for two reasons: The first was to be certain that only fleas that would feed in the feeding system were used in the comparative study.
The prefed fleas were placed in "minifeeder" feeding chambers at a ratio of about 80 female fleas to about 20 male fleas for a total of about 100 fleas per chamber. Actual total number of fleas per chamber varied from about 90 to 125 fleas. […] Three chambers were prepared for each experimental and control group. A fresh blood meal containing the appropriate inhibitor in 3 ml total volume was placed on each chamber daily through the 7 day extent of an assay.
On days 3, 5, and 7 of the assay, surviving adult fleas were transferred to clean chambers. The contents of the original chambers were dissolved in about 40 ml of PBS (phosphate-buffered saline) in a 50 ml Falcon tube. The contents of a given tube were then filtered through a preweighed #1 Whatman filter disk inserted into a vacuum filter. The 50 ml tube and the filter funnel were rinsed with distilled water which was then passed through the filter. Once the chamber contents had been filtered, dead adult fleas were removed from the filter paper and placed in a labelled tube so that they could be counted and sexed. The filter paper was then placed into a preweighed 12×75 polypropylene tube and dried in the SpeedVac for 2.5 hr with the heater on. After drying the filter paper was weighed. The weight of the filter paper and tube was subtracted to obtain the dry weight of the eggs and this value was converted to an estimated number of eggs using the formula y=41384.361x+162.37, where x=dry weight of eggs.
On day 7, adult fleas that had survived the study were frozen, counted and sexed. The numbers were added to the number of male and female fleas that had died during the assay to verify the number of male and female fleas in each chamber at the start of the study.
Female, male and total adult flea survival were calculated for all experimental and control groups on days 3, 5, and 7 of each assay. Additionally, the number of eggs per surviving female was calculated on days 3, 5 and 7. Female fleas found dead on a given collection date were included in the total number of egg-laying females for the days between that date and the previous collection date, providing a conservative estimate of fecundity. Fecundity values were averaged for the three collection dates to obtain an average for each group over 7 days.
Results of these studies are presented below in Table 1 and FIG. 6 through FIG. 9. All survival and fecundity values are presented below as a percent of control value.

Another data set has as its system flea aminopeptidase. Nature of the data set: Leu-AMC cleavage by serine protease-depleted flea midgut lysate. The data set is classed as biochemical. Here is the method: The starting material for the isolation of a flea aminopeptidase was a flea midgut lysate preparation that had been depleted of serine proteases by passage over a benzamidine-Sepharose affinity column. To assay for aminopeptidase activity, the synthetic substrate L-Leucine-AMC (Leu-AMC), which releases a fluorescent AMC leaving group upon proteolytic cleavage, was incubated with the serine protease-depleted flea midgut preparation. Aminopeptidase activity was easily detectable with as little as 1.2 μg of lysate, both confirming the presence of an aminopeptidase (as indicated in other Examples herein) and allowing for the detection of aminopeptidase activity in fractions collected throughout subsequent fractionation and purification procedures.

The test system of the next data set is leucine aminopeptidase. Nature of the data set: Leu-AMC cleavage by control protease. To be noted: 10 mM EDTA, 86 μg/ml bestatin; substrate Leu-AMC. Format: biochemical.
Data set [1] has as its system soluble fed and unfed flea midgut preparations. Format: biochemical. To be noted: substrate BAPNA. From the text:
Pellets from the centrifugation step were also collected and resuspended for analysis. Also prepared were whole flea lysates.

In the next data set the test system is flea midgut proteases. Nature of the data set: Protease substrate gel analysis of flea midguts with protease inhibitors in the incubation buffers. Format: biochemical. Here is the method:
Protease substrate gels (available from Novex, San Diego, Calif., as Novex Zymogels) were 10% polyacrylamide-SDS gels with 0.1% gelatin. Samples and gels were processed according to Novex instructions. Briefly, samples were diluted in SDS-PAGE sample buffer without reducing agents. Tris-glycine SDS-PAGE was carried out by standard procedures. After electrophoresis, gels were incubated in 0.25% Triton X-100 at room temperature for 30 minutes (min), then in developing buffer (50 mM (millimolar) Tris-HCl pH 7.0, 5 mM CaCl2, 0.02% Brij 35, 0.2 M (molar) NaCl) at room temperature for 30 min, and then incubated with fresh developing buffer at 37° C., usually overnight. Gels were then stained 30 min in 0.5% coomassie R-250, 40% methanol, 10% acetic acid and destained in 40% methanol, 10% acetic acid.
Three unfed female midguts and 0.75 fed female midguts were evaluated in duplicate in several protease substrate gels. Each gel was cut in half. Half was processed as described in Example 2, while the other half contained protease inhibitors in all incubation buffers. The following inhibitors were evaluated:
Mixed-sex fed flea midguts were processed as described in U.S. Pat. No. 5,356,622, ibid. Aliquots of several steps of the procedure were evaluated by loading an equivalent of 0.4 midguts per lane of a protease substrate gel as described in Example 2. Samples were from the low speed supernatant (lanes 2 and 9), sonicated midguts (lanes 3 and 10), high speed supernatant (lanes 4 and 11), combined low and high speed supernatants (FGS) (lanes 5 and 12) and the high speed pellet (lanes 6 and 13). Lanes 7 and 8 contained 50 nanograms (ng) of trypsin as a control. Duplicate lanes were evaluated. The gel was cut in half, and lanes 1-7 were processed as described in Example 2, and lanes 8-14 were processed with 100 μg/ml soybean trypsin inhibitor in all the incubation buffers.

Where [2] appears, read: at the concentrations tested in blood meal.

The text below walks through data of patent US6139840A, “Methods of eliciting an antibody response using flea protease proteins and homologs thereof” (priority 1997, dated 2000).

Like-named read-outs stand apart in the source and are kept apart here.

`CC(C)C[C@H](NC(=O)[C@@H](O)[C@H](N)Cc1ccccc1)C(=O)O` [Bestatin]: the “Fecundity Days 1-7” value was found to be 60.4% in the data set with adult fleas (1.3 mM in blood meal) and 23.3% with adult fleas (13.0 mM in blood meal). Moreover, the reduction in fecundity in the data set on adult fleas (1.3 mM in blood meal, significant (p<0.05)) came to 40%; with adult fleas (13 mM in blood meal, significant (p<0.05)) it was 77%. Further, the “effect on adult viability” value with adult fleas (setting [2]) is reported as “no significant effect on adult viability”. The “inhibition of the flea protease that cleaved Leu-AMC” value in the data set on flea aminopeptidase (1 mM pefabloc, 1 mg/ml trypsin/chymotrypsin inhibitor, 1 mg/ml trypsin inhibitor, 1 mM TPCK, 1 μg/ml pepstatin, 10 μg/ml E-64, 10 μg/ml leupeptin, 10 mM EDTA, 86 μg/ml bestatin, lysate about 1.2 μg and about 12 μg) is recorded as “inhibited”. Moreover, the “inhibition of the control protease” value in the data set on leucine aminopeptidase is on record as “inhibited”.

As to `O=C(O)CN(CCN(CC(=O)O)CC(=O)O)CC(=O)O` [EDTA, ethylenediaminetetraacetic acid], the “inhibition of the flea protease that cleaved Leu-AMC” value with flea aminopeptidase is “Only bestatin inhibited”. For the same molecule, in the data set on leucine aminopeptidase, the “inhibition of the control protease” value is given as “inhibited”.

Consider `O=S(=O)(F)Cc1ccccc1` [PMSF, phenylmethane-7-sulfonyl fluoride], for which the “inhibition of ability to cleave BAPNA (proteolytic activity)” value in data set [1] is given as “about 50%”.

Turning to Aprotinin, the “inhibition of ability to cleave BAPNA (proteolytic activity)” value in data set [1] was ~100%. Also, in the data set on adult fleas (2 μg/ml in blood meal), the “Adult Survival Female” value worked out at 103.2%, the “Adult Survival Male” value came to 104.9%, the “Adult Survival Total” value is given as 103.3% and the “Fecundity Days 1-7” value was 83.2%. In addition, in the data set with adult fleas (20 μg/ml in blood meal), the “Adult Survival Female” value was 100.0%, the “Adult Survival Male” value is 101.7%, the “Adult Survival Total” value is 99.9% and the “Fecundity Days 1-7” value turned out to be 84.2%. Also, in the data set on adult fleas (setting [2]), the “effect on adult viability” value was “no significant effect” and the effect on fecundity entry was “no significant effect”.

B1: Soybean Trypsin Inhibitor: serine protease inhibitor, available from Sigma (protein, UniProt P01070 25-205, looked up)
Trypsin inhibitor A: DFVLDNEGNPLENGGTYYILSDITAFGGIRAAPTGNERCPLTVVQSRNELDKGIGTIISSPYRIRFIAEGHPLSLKFDSFAVIMLCVGIPTEWSVVEDLPEGPAVKIGENKDAMDGWFRLERVSDDEFNNYKLVFCPQQAEDDKCGDIGISIDHDDGTRRLVVSKNKPLVVQFQKLDKESL
Consider B1, for which, in the data set on flea midgut proteases (mixed-sex fed flea midgut fractions, 100 μg/ml in all incubation buffers), the “inhibition of protease activity in protease substrate gel” value is “majority of the activity was inhibited”. Further, the “effect on protease activity in protease substrate gel” value in the data set with flea midgut proteases (unfed and fed female midguts, AEBSF 1 mM, soybean trypsin inhibitor 100 μg/ml, leupeptin 10 μg/ml in all incubation buffers) is reported as “only inhibitors to have any effect”. For the same molecule, in the data set with adult fleas (10 μg/ml in blood meal), the effect on fecundity result is given as “no effect”, the “Adult Survival Female” value was 80.1%, the “Adult Survival Male” value came out at 101.7% and the “Adult Survival Total” value stood at 83.9%. Also, in the data set on adult fleas (10 μg/ml in blood meal), the “Fecundity Days 1-7” value is 96.1%. Also, in the data set on adult fleas (100 μg/ml in blood meal), the “Adult Survival Female” value was 76.5%, the “Adult Survival Male” value was 76.0%, the “Adult Survival Total” value turned out to be 76.3% and the “Fecundity Days 1-7” value is on record as 79.1%. The molecule further returned a reduction in fecundity in the data set on adult fleas (100 μg/ml in blood meal, statistically insignificant) of 20%. Besides, the “inhibition of the flea protease that cleaved Leu-AMC” value in the data set on flea aminopeptidase is “Only bestatin inhibited”.
